The values below come from PubChem BioAssay (NCI).

Several values for one entry are separate records, joined by “and”; a condition that tells them apart may be missing. Equal entries are not always repeated.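 Step 1: Grow cells in 96-well plates. Step 2: Expose to compound for 48 hours at 5 concentrations. Step 3: Interpolate endpoints linearly; if unreached, use highest concentration. GI50: concentration for 50% inhibition of growth. TGI: concentration producing complete growth inhibition.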

Some test systems named below: LOX IMVI melanoma; MOLT-4 leukemia; MDA-MB-435; SK-MEL-5 melanoma; SNB-19 CNS; OVCAR-4 ovarian; DU-145 prostate; EKVX NSCLC; SF-268 CNS; NCI/ADR-RES ovarian.
What all share (assay): inhibition of tumour cell growth, NCI panel, 48 h

On to `COc1cc(N2CCN(C(C)C)CC2)ccc1Nc1nc(Nc2ccc(F)cc2C(=O)NCC(O)CO)c2cc[nH]c2n1` (stereo unspecified), for which the GI50 with LOX IMVI melanoma was 1.64 µM; in the assay with MOLT-4 leukemia it was 8.68 µM; in the assay on MDA-MB-435, 4.99 µM; in the assay with SK-MEL-5 melanoma, 11.4 µM; with SNB-19 CNS it was 7.41 µM; in the assay on OVCAR-4 ovarian it was more than 25 µM. Besides, the GI50 is 3.73 µM with DU-145 prostate, more than 13.8 µM in the assay on EKVX NSCLC, 6.89 µM in the assay with SF-268 CNS and more than 25 µM in the assay on NCI/ADR-RES ovarian. The TGI in the assay with LOX IMVI melanoma, in the assay on MOLT-4 leukemia, with MDA-MB-435, in the assay on SK-MEL-5 melanoma, in the assay with SNB-19 CNS and in the assay with OVCAR-4 ovarian was more than 25 µM each time. The TGI with DU-145 prostate, in the assay on EKVX NSCLC, with SF-268 CNS and with NCI/ADR-RES ovarian was more than 25 µM in each case.

For the compound `O=C1CC(C(=O)O)Cc2c(Br)ccc(O)c21` (stereo unspecified), the TGI in the assay on LOX IMVI melanoma, in the assay with MOLT-4 leukemia, in the assay with MDA-MB-435, in the assay with SK-MEL-5 melanoma, in the assay on SNB-19 CNS and with OVCAR-4 ovarian was more than 100 µM throughout. Moreover, the TGI in the assay with DU-145 prostate, in the assay with EKVX NSCLC, with SF-268 CNS and in the assay with NCI/ADR-RES ovarian was more than 100 µM in each case.

With `COC(=O)[C@H](Cc1ccccc1)NNC(=O)c1csc([C@@H](C[C@H](C(C)C)N(C)C(=O)[C@@H](NC(=O)[C@H]2CCCCN2C)C2CC2)OC(C)=O)n1`, the TGI is 25 µM and > 100 µM in the assay with LOX IMVI melanoma; 25 µM and > 100 µM in the assay with MOLT-4 leukemia; 0.51 µM and 2.26 µM in the assay on SK-MEL-5 melanoma; more than 100 µM in the assay with SNB-19 CNS; 25 µM and > 100 µM in the assay on OVCAR-4 ovarian; 25 µM and > 100 µM in the assay on DU-145 prostate. Moreover, the TGI is more than 100 µM in the assay with EKVX NSCLC; 25 µM and > 100 µM with SF-268 CNS; 25 µM and > 100 µM in the assay on NCI/ADR-RES ovarian. The GI50 was 0.00165 µM and 0.0151 µM with MDA-MB-435; 15.7 µM and 11 µM in the assay on NCI/ADR-RES ovarian.

For the compound `Cc1ccc(/C=C(/C#N)n2nnc3ncccc32)cc1`, the GI50 in the assay on LOX IMVI melanoma was 3.08 µM; in the assay on MOLT-4 leukemia it was 3.41 µM; in the assay on MDA-MB-435, 0.378 µM; in the assay on SK-MEL-5 melanoma, 2.89 µM; with SNB-19 CNS, 3.43 µM; in the assay with OVCAR-4 ovarian, 2.14 µM. Moreover, the GI50 in the assay on DU-145 prostate is 3.01 µM; in the assay with EKVX NSCLC it was 2.88 µM; in the assay on SF-268 CNS it was 3.08 µM; in the assay on NCI/ADR-RES ovarian, 1.37 µM. The TGI in the assay with LOX IMVI melanoma stood at 11.3 µM; in the assay with MOLT-4 leukemia, 19 µM; with MDA-MB-435 it was 13.4 µM; with SK-MEL-5 melanoma, 12.8 µM; in the assay on SNB-19 CNS, 16.8 µM; with OVCAR-4 ovarian it was 15.8 µM. Also, the TGI in the assay with DU-145 prostate was 13.7 µM; with EKVX NSCLC, 26.9 µM; with SF-268 CNS it was 15.1 µM; in the assay on NCI/ADR-RES ovarian, more than 100 µM.
